According to ChEMBL document CHEMBL4823307, “Discovery of benzimidazole derivatives as potent and selective aldehyde dehydrogenase 1A1 (ALDH1A1) inhibitors with glucose consumption improving activity” (Bioorg Med Chem, 2021):
Active and inactive are the calls of the source. The rule behind the calls is not given here.

Assays:
[1] = target: T1, Aldehyde dehydrogenase 1A1 (Homo sapiens) (UniProt P00352); test: Inhibition of human ALDH1A1 assessed as NADH formation using propionaldehyde as substrate at 10 uM by spectrophotometry
T1 sequence (whole entry): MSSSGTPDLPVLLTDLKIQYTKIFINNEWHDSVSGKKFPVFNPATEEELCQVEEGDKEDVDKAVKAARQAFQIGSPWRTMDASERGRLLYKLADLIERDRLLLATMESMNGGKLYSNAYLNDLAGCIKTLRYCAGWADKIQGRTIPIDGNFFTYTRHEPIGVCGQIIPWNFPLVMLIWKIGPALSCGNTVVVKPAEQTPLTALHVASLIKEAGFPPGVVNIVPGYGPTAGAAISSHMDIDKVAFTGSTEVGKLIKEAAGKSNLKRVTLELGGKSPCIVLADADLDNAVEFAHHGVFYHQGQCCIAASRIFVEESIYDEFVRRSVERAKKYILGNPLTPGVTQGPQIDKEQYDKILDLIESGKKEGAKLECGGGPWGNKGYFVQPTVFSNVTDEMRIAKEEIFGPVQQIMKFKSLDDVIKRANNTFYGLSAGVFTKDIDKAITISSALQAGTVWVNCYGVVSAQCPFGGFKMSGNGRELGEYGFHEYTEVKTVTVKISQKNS

[2] = Cytotoxicity against human HepG2 cells assessed as cell viability at 0.1 uM incubated for 24 hrs by MTT assay relative to control; format: cell-based; conditions: read-out: Activity
HepG2 [3] = test: Cytotoxicity against human HepG2 cells assessed as morphological changes at 0.1 to 10 uM incubated for 24 hrs; format: cell-based; conditions: hepg2, 24 h, dose 0.1-10 µM
Retinal dehydrogenase 2 = target: T2, Retinal dehydrogenase 2 (Homo sapiens, UniProt O94788); test: Inhibition of human ALDH1A2 assessed as NADH formation using propionaldehyde as substrate by spectrophotometry
T2 sequence (O94788 whole entry): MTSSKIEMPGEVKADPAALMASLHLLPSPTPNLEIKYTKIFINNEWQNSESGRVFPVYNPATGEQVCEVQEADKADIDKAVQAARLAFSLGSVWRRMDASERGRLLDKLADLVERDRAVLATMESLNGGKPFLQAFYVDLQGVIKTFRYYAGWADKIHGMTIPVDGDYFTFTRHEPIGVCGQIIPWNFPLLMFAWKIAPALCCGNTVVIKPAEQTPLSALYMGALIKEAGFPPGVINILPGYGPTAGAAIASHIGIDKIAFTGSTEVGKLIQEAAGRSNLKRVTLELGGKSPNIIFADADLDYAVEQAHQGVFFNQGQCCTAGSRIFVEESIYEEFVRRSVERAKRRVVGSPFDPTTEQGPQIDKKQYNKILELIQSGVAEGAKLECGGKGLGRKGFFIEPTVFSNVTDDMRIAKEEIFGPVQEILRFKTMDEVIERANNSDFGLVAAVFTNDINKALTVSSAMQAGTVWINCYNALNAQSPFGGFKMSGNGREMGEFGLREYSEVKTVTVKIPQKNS

[4] = Cytotoxicity against human HepG2 cells assessed as cell viability at 10 uM incubated for 24 hrs by MTT assay relative to control; format: cell-based; conditions: read-out: Activity
[5] = target: T3, Retinaldehyde dehydrogenase 3 (Homo sapiens, UniProt P47895); test: Inhibition of human ALDH1A3 assessed as NADH formation using propionaldehyde as substrate by spectrophotometry
T3 sequence (P47895 whole entry): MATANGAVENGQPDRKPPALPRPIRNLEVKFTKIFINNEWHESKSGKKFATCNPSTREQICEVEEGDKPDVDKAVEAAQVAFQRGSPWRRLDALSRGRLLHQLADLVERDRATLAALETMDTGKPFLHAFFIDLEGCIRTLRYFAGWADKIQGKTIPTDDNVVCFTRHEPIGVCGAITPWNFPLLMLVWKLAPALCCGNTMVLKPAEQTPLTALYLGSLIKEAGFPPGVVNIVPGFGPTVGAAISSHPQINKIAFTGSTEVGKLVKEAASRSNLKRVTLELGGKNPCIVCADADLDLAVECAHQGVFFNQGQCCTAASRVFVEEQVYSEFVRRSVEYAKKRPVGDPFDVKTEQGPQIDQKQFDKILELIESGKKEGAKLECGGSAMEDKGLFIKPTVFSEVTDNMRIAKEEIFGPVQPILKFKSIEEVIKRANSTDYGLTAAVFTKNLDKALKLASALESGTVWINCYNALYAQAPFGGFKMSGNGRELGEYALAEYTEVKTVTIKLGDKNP

[6] = Cytotoxicity against human HepG2 cells assessed as cell viability at 1 uM incubated for 24 hrs by MTT assay relative to control; format: cell-based; conditions: read-out: Activity
HepG2 [7] = test: Increase in glucose consumption in human HepG2 cells at 10 uM by glucose oxidase assay; format: functional
[8] = target: T4, Aldehyde dehydrogenase 1A1 (Homo sapiens, UniProt P00352); test: Inhibition of human ALDH1A1 assessed as NADH formation using propionaldehyde as substrate by spectrophotometry
T4 sequence (P00352 whole entry): T1 sequence (whole entry)

[9] = target: T5, Aldehyde dehydrogenase, mitochondrial (Homo sapiens, UniProt P05091); test: Inhibition of human ALDH2 assessed as NADH formation using propionaldehyde as substrate by spectrophotometry
T5 sequence (P05091 whole entry): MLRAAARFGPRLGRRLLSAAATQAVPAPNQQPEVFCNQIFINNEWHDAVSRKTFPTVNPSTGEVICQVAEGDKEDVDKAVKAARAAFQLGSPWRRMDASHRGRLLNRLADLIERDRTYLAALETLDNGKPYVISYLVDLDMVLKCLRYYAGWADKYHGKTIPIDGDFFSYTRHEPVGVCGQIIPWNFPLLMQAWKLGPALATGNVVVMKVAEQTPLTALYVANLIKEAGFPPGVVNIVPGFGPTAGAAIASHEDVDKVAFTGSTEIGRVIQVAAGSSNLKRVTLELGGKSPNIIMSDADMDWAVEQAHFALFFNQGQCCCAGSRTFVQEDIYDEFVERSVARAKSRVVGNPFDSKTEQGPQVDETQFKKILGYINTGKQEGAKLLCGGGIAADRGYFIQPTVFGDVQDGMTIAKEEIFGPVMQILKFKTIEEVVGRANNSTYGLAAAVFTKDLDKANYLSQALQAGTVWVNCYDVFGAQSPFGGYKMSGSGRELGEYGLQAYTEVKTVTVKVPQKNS

With Cc1cccc(Cn2c(NC3CCN(C(=O)c4ccco4)CC3)nc3ccccc32)c1 the inhibition [1] was 27.9%.

Compound Cc1cccc(Cn2c(CN3CCN(C(=O)c4ccc(Br)cc4)CC3)nc3ccccc32)c1 has an inhibition [1] of 25.8%.

Cc1cccc(Cn2c(OC3CCN(C(=O)c4ccco4)CC3)nc3ccccc32)c1 showed an inhibition [1] of 68.3%.

COc1cccc(Cn2c(CN3CCN(C(=O)C4CC4)CC3)nc3ccccc32)c1 showed an inhibition [1] of 44.4%.

O=C(C1CC1)N1CCN(Cc2nc3ccccc3n2Cc2ccccc2F)CC1 gave an inhibition [1] of 40.7%.

Work on O=C(C1CC1)N1CCN(Cc2nc3ccccc3n2CC2CC2)CC1 yielded an inhibition [1] of 21.2%.

With CC(C)CCn1c(OC2CCN(C(=O)C3CC3)CC2)nc2ccccc21 the inhibition [1] was 56.4%.

For Cc1cccc(Cn2c(CN3CCN(C(=O)C(C)C)CC3)nc3ccccc32)c1, the viability at 24 h, 0.1 µM [2] was 98.4%, the Activity (HepG2 [3]) was “Non-Toxic” and the IC50 (Retinal dehydrogenase 2) was 2780 nM. The viability at 24 h, 10 µM [4] was 85.7%, the IC50 [5] was 2880 nM and the viability at 24 h, 1 µM [6] was 93.7%. The Activity (HepG2 [7]) was 20%, the inhibition [1] was 87.2% and the IC50 [8] was 458 nM. It also gave an IC50 [9] of 2270 nM.

In the case of CC(C)Cn1c(CN2CCN(C(=O)C3CC3)CC2)nc2ccccc21, the inhibition [1] is reported as 13.1%.

Work on O=C(C1CC1)N1CCN(Cc2nc3ccccc3n2Cc2ccc(C(F)(F)F)cc2)CC1 yielded an inhibition [1] of 37%.

With O=C(C1CC1)N1CCN(Cc2nc3ccccc3n2Cc2ccccc2C(F)(F)F)CC1 the inhibition [1] was 56.3%.

In the case of Cc1cccc(Cn2c(OC3CCN(C(=O)C4CC4)CC3)nc3ccccc32)c1, the inhibition [1] is reported as 80.6%.

O=C(C1CC1)N1CCN(Cc2nc3ccccc3n2Cc2ccc(Cl)cc2)CC1 showed an inhibition [1] of 56.6%.

Compound Cc1cccc(Cn2c(CN3CCN(C(=O)c4ccccc4)CC3)nc3ccccc32)c1 has an inhibition [1] of 60.9%.

Work on Cc1cccc(Cn2c(CN3CCN(C(=O)c4ccc(F)cc4)CC3)nc3ccccc32)c1 yielded an inhibition [1] of 27.1%.

Work on Cc1cccc(Cn2c(CN3CCN(C(=O)CC(C)C)CC3)nc3ccccc32)c1 yielded an inhibition [1] of 71.4%.

With CC(C)CCn1c(CN2CCN(C(=O)c3ccco3)CC2)nc2ccccc21 the inhibition [1] was 42.1%.

Cc1ccc(Cn2c(CN3CCN(C(=O)C4CC4)CC3)nc3ccccc32)cc1 showed an inhibition [1] of 51.5%.

Cc1cccc(Cn2c(CN3CCN(C(=O)c4cccnc4)CC3)nc3ccccc32)c1 showed an inhibition [1] of 24.5%.

With Cc1cccc(Cn2c(CN3CCN(C(=O)c4ccc(C#N)cc4)CC3)nc3ccccc32)c1 the inhibition [1] was 20.8%.

CC(C)CCn1c(NC2CCN(C(=O)C3CC3)CC2)nc2ccccc21 showed an inhibition [1] of 10.8%.

For Cc1cccc(Cn2c(CN3CCN(C(=O)c4ccc(C(F)(F)F)cc4)CC3)nc3ccccc32)c1, the inhibition [1] was 22.9%.

With Cc1cccc(Cn2c(CN3CCN(C(=O)c4cccs4)CC3)nc3ccccc32)c1 the inhibition [1] was 60.8%.

With O=C(C1CC1)N1CCN(Cc2nc3ccccc3n2Cc2ccc(F)cc2)CC1 the inhibition [1] was 32.7%.

With CCc1ccc(C(=O)N2CCN(Cc3nc4ccccc4n3Cc3cccc(C)c3)CC2)cc1 the inhibition [1] was 67%.

Cc1cccc(Cn2c(CN3CCN(C(=O)c4ccco4)CC3)nc3ccccc32)c1 gave an inhibition [1] of 73.2%.

In the case of Cc1ccccc1Cn1c(CN2CCN(C(=O)C3CC3)CC2)nc2ccccc21, the inhibition [1] is reported as 29.1%.

In the case of Cc1ccc(C(=O)N2CCN(Cc3nc4ccccc4n3Cc3cccc(C)c3)CC2)cc1, the inhibition [1] is reported as 64.9%.

Work on CC(C)CCn1c(CN2CCN(C(=O)C3CC3)CC2)nc2ccccc21 yielded an inhibition [1] of 70%.

Compound Cc1cccc(Cn2c(CN3CCN(C(=O)c4ccncc4)CC3)nc3ccccc32)c1 has an inhibition [1] of 20.6%.

With Cc1cccc(Cn2c(CN3CCN(C(=O)c4ccc(Cl)cc4)CC3)nc3ccccc32)c1 the inhibition [1] was 23.2%.

Compound O=C(C1CC1)N1CCN(Cc2nc3ccccc3n2Cc2ccccc2)CC1 has an inhibition [1] of 23.9%.

Cc1cccc(Cn2c(CN3CCN(C(=O)C4CCCCC4)CC3)nc3ccccc32)c1 showed an inhibition [1] of 31.9%.

O=C(C1CC1)N1CCN(Cc2nc3ccccc3n2CC2CCCC2)CC1 showed an inhibition [1] of 44.5%.

COc1ccc(C(=O)N2CCN(Cc3nc4ccccc4n3Cc3cccc(C)c3)CC2)cc1 showed an inhibition [1] of 55.5%.

Work on Cc1cccc(Cn2c(CN3CCN(C(=O)C4CCCC4)CC3)nc3ccccc32)c1 yielded an inhibition [1] of 67.5%.

Work on CCn1c(CN2CCN(C(=O)C3CC3)CC2)nc2ccccc21 yielded an inhibition [1] of 20.8%.

For CCCC(=O)N1CCN(Cc2nc3ccccc3n2Cc2cccc(C)c2)CC1, the inhibition [1] was 79%.

Work on Cc1cccc(Cn2c(CN3CCN(C(=O)c4ccc(C(C)C)cc4)CC3)nc3ccccc32)c1 yielded an inhibition [1] of 67.6%.

In the case of CCCCn1c(CN2CCN(C(=O)C3CC3)CC2)nc2ccccc21, the inhibition [1] is reported as 18.2%.

In the case of Cc1cccc(Cn2c(CN3CCN(C(=O)c4ccc([N+](=O)[O-])cc4)CC3)nc3ccccc32)c1, the inhibition [1] is reported as 24.3%.

With O=C(C1CC1)N1CCN(Cc2nc3ccccc3n2Cc2cccc(F)c2)CC1 the inhibition [1] was 27.1%.

In the case of CCC(=O)N1CCN(Cc2nc3ccccc3n2Cc2cccc(C)c2)CC1, the viability at 24 h, 0.1 µM [2] is reported as 89.7%, the Activity (HepG2 [3]) is reported as “Non-Toxic” and the IC50 (Retinal dehydrogenase 2) is reported as 2090 nM. The viability at 24 h, 10 µM [4] was 85.4%, the IC50 [5] was 1680 nM and the viability at 24 h, 1 µM [6] was 91.8%. The Activity (HepG2 [7]) was 15%, the inhibition [1] was 85.1% and the IC50 [8] was 626 nM. For the same compound, the IC50 [9] was 3230 nM.

Cc1cccc(Cn2c(NC3CCN(C(=O)C4CC4)CC3)nc3ccccc32)c1 gave an inhibition [1] of 49.1%.

CC(=O)N1CCN(Cc2nc3ccccc3n2Cc2cccc(C)c2)CC1 showed an inhibition [1] of 70.3%.

In the case of CC(C)CCn1c(CN2CCN(C(=O)c3ccco3)CC2)nc2c1c(=O)n(C)c(=O)n2C, the viability at 24 h, 0.1 µM [2] is reported as 100%, the viability at 24 h, 10 µM [4] is reported as 98.2% and the viability at 24 h, 1 µM [6] is reported as 100%. The Activity (HepG2 [7]) was “inactive”.

Compound Cc1cccc(Cn2c(CN3CCN(C(=O)C4CCC4)CC3)nc3ccccc32)c1 has an inhibition [1] of 69.1%.

Compound CC(C)CCn1c(OC2CCN(C(=O)c3ccco3)CC2)nc2ccccc21 has an inhibition [1] of 30.8%.
